This note sets out measurements from US20020168325A1, “NOS inhibitors for treatment of wrinkles” (priority 2001, published 2002).

“Also recorded” adds a separate entry of the source.

Data set [1] deals with ears of female Balb/C mice. Briefly: Ear swelling response (skin irritation from topical application). The class given is in vivo. As to the method: To examine the potential for irritation from topical application of a NOS inhibitor to the skin, measurements of ear swelling response were performed as follows: The thickness of both ears of each of three female Balb/C mice, 10 weeks of age, was measured with a thickness gage (Mitsutoyo Corp.). Ten microliters of 1% L-NAME (L-N^G-nitro-arginine methyl ester) in 70% ethanol in water was applied to each right ear, and 10 microliters of 70% ethanol in water was applied to each left ear as a control. Ear thickness was monitored over two consecutive days following administration of the solutions.

Data set [2] has as its system back skin of mice (HR-1 hairless strain). The experiment in a line: Wrinkle formation caused by UVB exposure, analysis of back skin replicas (Wrinkle Analyzer 3D Pro). The format is in vivo. An excerpt:
The effect of a compound on the formation or appearance of wrinkles can be evaluated qualitatively, e.g., by visual inspection, or quantitatively, e.g., by computer assisted measurements of wrinkle morphology. Preferably, wrinkle morphology is quantitatively analyzed. Examples of quantitative methods for measuring wrinkles include, but are not limited to, the optical cut technique employing a laser beam, as proposed by Hoshino (1992) Pixel 45:121, herein incorporated by reference; or methods which analyze three-dimensional skin replicas, e.g., the Shiseido Wrinkle Analyzer 3D Pro system (Takasu et al. (1996) J Soc Cosmet Chem Japan 29:394-405; Japanese Published Patent Application No. 07-113623, published May 2, 1995 (corresponds to U.S. patent application Ser. No. 08/364,346)). The SILFLO (Flexico Development Ltd.) system or a similar system can be used to take a replica of the skin. Irregularities on the surface of the skin replica, i.e., wrinkles, are analyzed, e.g., with the Shiseido Wrinkle Analyzer 3D Pro or a similar system, to provide three-dimensional shape data from the heights at points on a two-dimensional plane corresponding to the skin. According to the three-dimensional data, the length, width, depth, area, and volume of each wrinkle is calculated. According to the parameters for regular and fine wrinkles described herein, different classes of wrinkles, including the subclasses of regular and fine wrinkles, can thus be individually recognized and scored.
To examine the effect of L-NAME on wrinkle formation, wrinkle measurements experiments were performed on the back skin of mice (HR-1 hairless strain, female, 5 weeks of age, n=3) by taking and analyzing skin replicas.
Mice were exposed to UVB irradiation three times a week for ten weeks beginning with 0.3mW/cm^2. The total exposure was 4.662J/cm^2. 100 microliters of 1% L-NAME in 70% ethanol, or 70% ethanol as a control, was applied after each UVB irradiation. Three days after the final UVB irradiation, skin replicas of the dorsal area were taken by means of SILFLO (Flexico Development Ltd.). Replicas were evaluated by the Wrinkle Analyzer 3D Pro developed by Shiseido (essentially as described in Takasu et al. (1996) J Soc Cosmet Chem Japan 29:394-405). Wrinkdle volume and width of regular and fine wrinkles was calculated through three-dimensional data.

[3] abbreviates: UVB three times a week for ten weeks, 100 microliters of 1% L-NAME in 70% ethanol after each irradiation, replicas three days after final UVB.

For `COC(=O)[C@@H](N)CCCNC(=N)N[N+](=O)[O-]` [L-NAME, L-N^G-nitro-arginine methyl ester], the “Difference in ear thickness between control and treated ears” value in data set [1] (1% L-NAME in 70% ethanol vs 70% ethanol control, over two days) is recorded as “no statistically significant difference in ear thickness”. Moreover, the “Skin inflammation / other signs of irritation (redness, flaking)” value in data set [1] (1% L-NAME in 70% ethanol, topical on ear) is “did not cause skin inflammation; also recorded: no other signs of skin irritation or inflammation”. For the same compound, in data set [1] (Day 0, right ears, 10 microliters of 1% L-NAME in 70% ethanol topical, three female Balb/C mice), the “Ear thickness DAY 0, AVE ± SD” value is given as 26.33 ± 0.58 × 0.01 mm. Moreover, in data set [1] (Day 1 after application, right ears, 10 microliters of 1% L-NAME in 70% ethanol topical), the “Ear thickness DAY 1, AVE ± SD” value was found to be 25.33 ± 0.58 × 0.01 mm. Also, the “Ear thickness DAY 2, AVE ± SD” value in data set [1] (Day 2 after application, right ears, 10 microliters of 1% L-NAME in 70% ethanol topical) amounted to 26.33 ± 0.58 × 0.01 mm. The “Effect on fine wrinkle formation caused by UVB exposure” value in data set [2] (1% L-NAME in 70% ethanol on back skin of mice, compared to control mice) is “prevented the formation of fine wrinkles; also recorded: reduction in fine wrinkles”. For the same compound, in data set [2] (setting [3]), the “Wrinkle volume, fine wrinkles” value is 175,295 pixels; the “Wrinkle volume, regular wrinkles” value is 896,863 pixels; the “Wrinkle volume, total (regular + fine)” value is listed as 1,072,158 pixels.
